Earlier results on one compound are cited in patent US20240189272A1, “FORMULATIONS AND COMPOSITIONS OF DOCETAXEL” (Zhuhai Beihai Biotech Co., Ltd., priority 2017, published 2024).

Entries after “also recorded” stand apart in the source; their conditions may differ.

For data set [1] the following is noted: attributed in part to polysorbate 80.

`CC(=O)O[C@@]12CO[C@@H]1C[C@H](O)[C@@]1(C)C(=O)[C@H](O)C3=C(C)[C@@H](OC(=O)[C@H](O)[C@@H](NC(=O)OC(C)(C)C)c4ccccc4)C[C@@](O)([C@@H](OC(=O)c4ccccc4)[C@H]21)C3(C)C` [docetaxel]: the water solubility entry is on record as “practically insoluble in water; also recorded: very poor water solubility”. Further, the “in vitro binding to plasma proteins” value in the data set with plasma proteins (in three cancer patients) is listed as “approximately 97%”. Also, the protein bound entry in the data set with plasma proteins (in vitro studies, mainly to α1-acid glycoprotein, albumin, and lipoproteins) was “about 94%”. Moreover, in the data set on microtubules, the “potency in inhibiting microtubule depolymerization relative to paclitaxel” value was “about twice as potent as paclitaxel”. In data set [1], the “side-effects associated with administration” value was “unpredictable (acute) hypersensitivity reactions and cumulative fluid retention”.
